Experiments:
F508del-CFTR = F508del-CFTR (Homo sapiens, UniProt P13569, DEL508-508); assay: HS-YFP-based assay for CFTR activity on F508del-CFTR FRT cells rescued at 32 °C for 24 h; assay type: cell-based; set-up: expressed in transfected cells; key to Emax: fold increase in F508del-CFTR rescue relative to hit 3 (normalized); conditions: for EC50: F508del-CFTR FRT cells rescued at 32 °C for 24 h, plus forskolin; for Emax: supplementary csv, same data as Tables 1–3
In short: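 FRT cells co-expressing F508del-CFTR and HS-YFP (H148Q/I152L) were rescued 24 h at 32 °C, then exposed to compound plus forskolin (10 or 20 μM) for about 25 min in PBS. Iodide injection (100 mM final) quenched YFP (ex 500/em 535 nm). The initial dF/dt gave activity, fitted for EC50 and for Emax relative to a reference hit.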

[1] = Liver microsomal stability, phase II (UDPGA), human; assay type: in vitro ADME; conditions: for human LM_UDPGA parent compound remaining at the last time point (in parentheses): 4.6 μM, 60 min; for half-life at 4.6 μM: human, liver microsomes, pH 7.5, 0.1% DMSO, n ≥ 3, read-out: human LM_UDPGA t1/2
Procedure: Phase II: 10 mM DMSO stock solution of the test compound was preincubated at 37 °C for 15 min with human liver microsomes added alamethicin in 0.1 M Tris–HCl buffer (pH 7.5) with 10% DMSO. The final concentration was 4.6 μM. After preincubation, the cofactors (UDPGA, D-saccharic acid lactone, and MgCl2 predissolved in 0.1 M Tris–HCl) were added to the incubation mixture and the incubation was continued at 37 °C for 1 h.
For both phase I and II studies: At each time point (0, 5, 15, 30, and 60 min), 30 μL of the incubation mixture was diluted with 200 μL of cold CH3CN spiked with 200 nM of an appropriate internal standard, followed by centrifugation at 3270g for 15 min. The supernatant was further diluted with H2O (1:1) for analysis. A reference incubation mixture (microsomes without cofactors) was prepared for each test compound and analyzed at t = 0 and 60 min in order to verify the compound’s stability in the matrix. The two time points were diluted as for the time points of the incubation mixture above. The supernatants were analyzed by LC/MS–MS on a Waters ACQUITY UPLC/MS TQD system consisting of a TQD (triple quadrupole detector) mass spectrometer equipped with an electrospray ionization interface and a photodiode array eλ detector. Electrospray ionization was applied in positive mode. Compound-dependent parameters as MRM transitions and collision energy were developed for each compound. The analyses were run on an ACQUITY UPLC BEH C18 (50 × 2.1 mm ID, particle size 1.7 μm) with a VanGuard BEH C18 precolumn (5 × 2.1 mm ID, particle size 1.7 μm) at 40 °C, using H2O + 0.1% HCOOH (A) and CH3CN + 0.1% HCOOH (B) as the mobile phase. The percentage of test compound remaining at each time point relative to t = 0 was calculated by the response factor on the basis of the internal standard peak area. The percentage of test compound versus time was plotted and fitted by GraphPad Prism (GraphPad Software, Version 5 for Windows, CA, USA, www.graphpad.com) to estimate the compound’s half-life (t1/2), which was reported as mean value along with the standard deviation (n = 3).

[2] = mean ± SD (n = 3–6), n.a.: not active (up to 20 μM)

Chain of F508del-CFTR (P13569 with tags, fused parts or gaps DEL508-508): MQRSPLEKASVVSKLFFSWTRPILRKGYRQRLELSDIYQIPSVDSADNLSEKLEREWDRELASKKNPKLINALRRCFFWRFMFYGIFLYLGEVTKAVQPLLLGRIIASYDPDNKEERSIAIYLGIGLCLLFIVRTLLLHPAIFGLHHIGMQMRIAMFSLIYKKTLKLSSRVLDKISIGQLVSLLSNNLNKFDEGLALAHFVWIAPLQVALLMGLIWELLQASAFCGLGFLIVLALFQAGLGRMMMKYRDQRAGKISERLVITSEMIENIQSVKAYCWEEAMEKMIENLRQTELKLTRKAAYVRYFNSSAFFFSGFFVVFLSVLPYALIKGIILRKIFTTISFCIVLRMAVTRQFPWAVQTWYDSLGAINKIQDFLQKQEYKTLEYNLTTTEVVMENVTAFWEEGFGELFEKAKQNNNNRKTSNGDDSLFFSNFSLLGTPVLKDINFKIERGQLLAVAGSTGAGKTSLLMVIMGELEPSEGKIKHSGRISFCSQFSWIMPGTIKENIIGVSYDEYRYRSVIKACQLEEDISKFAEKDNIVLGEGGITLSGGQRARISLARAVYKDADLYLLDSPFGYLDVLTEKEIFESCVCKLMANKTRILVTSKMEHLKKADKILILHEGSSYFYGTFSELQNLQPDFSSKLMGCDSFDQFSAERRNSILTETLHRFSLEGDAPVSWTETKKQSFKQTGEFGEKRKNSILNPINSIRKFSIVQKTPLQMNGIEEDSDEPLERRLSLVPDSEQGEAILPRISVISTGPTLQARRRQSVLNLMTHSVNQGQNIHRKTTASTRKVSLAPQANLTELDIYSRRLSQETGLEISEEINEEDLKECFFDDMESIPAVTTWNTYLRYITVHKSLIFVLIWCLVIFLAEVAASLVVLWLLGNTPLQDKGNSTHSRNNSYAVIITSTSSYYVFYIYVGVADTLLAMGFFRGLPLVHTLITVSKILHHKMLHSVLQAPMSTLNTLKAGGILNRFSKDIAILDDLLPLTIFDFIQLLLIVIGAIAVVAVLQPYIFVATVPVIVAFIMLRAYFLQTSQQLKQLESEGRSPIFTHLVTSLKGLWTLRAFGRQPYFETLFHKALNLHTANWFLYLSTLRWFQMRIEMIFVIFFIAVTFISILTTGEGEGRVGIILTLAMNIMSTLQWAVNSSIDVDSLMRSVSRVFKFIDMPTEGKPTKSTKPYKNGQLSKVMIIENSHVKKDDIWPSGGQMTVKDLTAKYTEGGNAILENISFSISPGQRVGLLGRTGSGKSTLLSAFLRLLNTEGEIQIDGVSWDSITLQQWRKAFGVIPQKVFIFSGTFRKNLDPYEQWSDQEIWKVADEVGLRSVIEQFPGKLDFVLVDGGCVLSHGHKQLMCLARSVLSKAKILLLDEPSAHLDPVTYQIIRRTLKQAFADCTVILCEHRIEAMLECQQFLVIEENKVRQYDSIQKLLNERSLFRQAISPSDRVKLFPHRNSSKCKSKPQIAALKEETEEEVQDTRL

COc1ccc2[nH]c3c(c2c1)CN(C(=O)c1cc(C(F)(F)F)[nH]n1)CC3 [Compound 3, (8-Methoxy-1,3,4,5-tetrahydropyrido[4,3-b]indol-2-yl)-[5-(trifluoromethyl)-1H-pyrazol-3-yl]methanone] gave an EC50 (F508del-CFTR; [2]) of 0.35 ± 0.13 µM and an Emax (F508del-CFTR) of 1 ± 0.04.
In the case of O=C(c1cc(C(F)(F)F)[nH]n1)N1CCc2[nH]c3c(F)ccc(F)c3c2C1 [Compound 29, (6,9-Difluoro-1,3,4,5-tetrahydro-2H-pyrido[4,3-b]indol-2-yl)-(5-(trifluoromethyl)-1H-pyrazol-3-yl)methanone], the EC50 (F508del-CFTR; [2]) is reported as 0.15 ± 0.08 µM and the Emax (F508del-CFTR) is reported as 1.19 ± 0.15.
For O=C(c1cc(C(F)(F)F)[nH]n1)N1CCc2[nH]c3c(F)cccc3c2C1 [Compound 20, (6-Fluoro-1,3,4,5-tetrahydro-2H-pyrido[4,3-b]indol-2-yl)-(5-(trifluoromethyl)-1H-pyrazol-3-yl)methanone], the EC50 (F508del-CFTR; [2]) was 0.096 ± 0.021 µM, the “Emax (FRT F508del-CFTR)” value (F508del-CFTR; normalized for the activity of analogue 3, mean ± SD (n = 3–6), n.a.: not active (up to 20 μM)) was 0.96 ± 0.06 and the Emax (F508del-CFTR) was 0.96 ± 0.06.
In the case of Cc1ccc(F)c2[nH]c3c(c12)CN(C(=O)c1cc(C(F)(F)F)[nH]n1)[C@H](C)C3 [Compound 39, (R)-(6-Fluoro-3,9-dimethyl-1,3,4,5-tetrahydro-2H-pyrido[4,3-b]indol-2-yl)-(5-(trifluoromethyl)-1H-pyrazol-3-yl)methanone], the “human LM_UDPGA parent compound remaining at the last time point (in parentheses)” value [1] is reported as 79%, the half-life at 4.6 μM [1] is reported as over 1 h and the “activity on F508del-CFTR FRT cells (in words)” value (F508del-CFTR) is reported as “the most potent analogue”. For the same molecule, the EC50 (F508del-CFTR; [2]) was 0.017 ± 0.007 µM, the Emax (F508del-CFTR) was 1.30 ± 0.12 and the “activity compared to VX-770” value (F508del-CFTR; tested at 10 and 1 nM, Figure 6A) was “slightly lower activity than VX-770”.
For Cc1ccc(F)c2[nH]c3c(c12)CN(C(=O)c1cc(C(F)(F)F)[nH]n1)CC3 [Compound 30, (6-Fluoro-9-methyl-1,3,4,5-tetrahydro-2H-pyrido[4,3-b]indol-2-yl)-(5-(trifluoromethyl)-1H-pyrazol-3-yl)methanone], the “human LM_UDPGA parent compound remaining at the last time point (in parentheses)” value [1] was 75%, the half-life at 4.6 μM [1] was over 1 h and the “fold increase in potency compared to hit 3” value (F508del-CFTR; EC50, F508del-CFTR FRT cells) was “more than 6 fold”. It also gave an EC50 (F508del-CFTR; [2]) of 0.06 ± 0.03 µM and an Emax (F508del-CFTR) of 1.00 ± 0.09.
COc1cc(F)c2[nH]c3c(c2c1)CN(C(=O)c1cc(C(F)(F)F)[nH]n1)CC3 [Compound 25, (6-Fluoro-8-methoxy-1,3,4,5-tetrahydro-2H-pyrido[4,3-b]indol-2-yl)-(5-(trifluoromethyl)-1H-pyrazol-3-yl)methanone] gave an EC50 (F508del-CFTR; [2]) of 0.13 ± 0.06 µM and an Emax (F508del-CFTR) of 1.15 ± 0.13.

From paper PMC8011931, “Identification, Structure–Activity Relationship, and Biological Characterization of 2,3,4,5-Tetrahydro-1H-pyrido[4,3-b]indoles as a Novel Class of CFTR Potentiators” (Journal of Medicinal Chemistry, 2020)
